Laboratory results taken from PMC7613515, “Reading and erasing of the phosphonium analogue of trimethyllysine by epigenetic proteins” (Communications Chemistry, 2022).

How the values were obtained:
[1] = cited from earlier work
From the text: Some JmjC KDMs can also catalyse N-methyl arginine demethylation and with appropriately sized N^ε-substitutions some can catalyse forma ...

KDM4EJmjC (M1–Q337) = molecular target: T1, KDM4EJmjC (M1–Q337) (Homo sapiens, UniProt B2RXH2); assay: NMR demethylation assay (1H, 31P), KDM4EJmjC; assay type: biochemical; details: KDM4EJmjC 50 µM
T1 construct: We chose human KDM4EJmjC (M1–Q337); made in house
T1 sequence (B2RXH2 1-337): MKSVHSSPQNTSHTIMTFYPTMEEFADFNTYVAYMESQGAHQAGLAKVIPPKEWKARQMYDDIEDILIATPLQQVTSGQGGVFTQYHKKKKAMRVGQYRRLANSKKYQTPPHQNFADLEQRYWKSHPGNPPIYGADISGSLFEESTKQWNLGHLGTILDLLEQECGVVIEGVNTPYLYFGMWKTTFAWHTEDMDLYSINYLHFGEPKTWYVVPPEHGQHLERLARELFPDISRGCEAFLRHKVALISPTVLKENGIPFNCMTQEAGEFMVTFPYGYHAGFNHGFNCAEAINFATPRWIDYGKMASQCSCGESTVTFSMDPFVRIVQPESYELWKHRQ
Description: Incubations of H3_1-15KP9me3 with KDM4EJmjC were performed in Eppendorf tubes (1.5 mL). Conditions used for ^1H and ^31P NMR time-courses: H3_1-15KP9me3 (250 µM) was incubated with KDM4EJmjC (50 µM), sodium ascorbate (1.00 mM), 2OG (500 µM), and Fe(NH4)2(SO4)2 (100 µM) in HEPES-d18 buffer (50 mM, pH 7.5) in D2O ( > 95% ^2H). Reactions (160 µL total volume) were quenched by addition of HCl (1 M, 10 equivalents) after the indicated time. The samples were centrifuged (1 min, 14,500 rpm) and the supernatant transferred to an NMR tube (3 mm, Norell). For characterisation of the products from the incubation of H3_1-15KP9me3 with KDM4EJmjC the following conditions were used: Peptide H3_1-15KP9me3 (500 µM) was incubated with sodium ascorbate (1.00 mM) 2-oxoglutarate (1.00 mM), Fe(NH4)2(SO4)2 (100 µM), and KDM4EJmjC (50.0 µM), in HEPES-d18 buffer (50 mM, pH 7.5) in D2O (>95% ^2H) for 1 hour. Reactions were quenched by addition of HCl (1 M, 10 equivalents), or by heating (95 °C, 10 min). Precipitated proteins were removed by centrifugation (1 min, 14,500 rpm) and the supernatant transferred to an NMR tube (3 mm, Norell). Spectra were measured using a Bruker 600 MHz machine and analysed using MestReNova 14.1 (MestReLabs, Spain; www.mestrelab.com) and Topspin 3.6.1 (Bruker, Germany; www.bruker.com). […]

| Molecule | bond length (C-P or C-N) ([1]; C-P bond in H3KP4me3, C-N bond in H3K4me3) | demethylation (KDM4EJmjC (M1–Q337); 1H and 31P NMR, H3KP9me3 250 or 500 µM, HEPES-d18 pH 7.5 in D2O) | demethylation with 2OG turnover to succinate (KDM4EJmjC (M1–Q337); NMR time-course, H3KP9me3 250 µM) | volume difference Δ[^+Pme4-^+Nme4] ([1]; H3KP9me3 compared to H3K9me3) |
| --- | --- | --- | --- | --- |
| C[C@H](N)C(=O)N[C@@H](CCCNC(=N)N)C(=O)N[C@H](C(=O)N[C@@H](CCCC[P+](C)(C)C)C(=O)N[C@@H](CCC(N)=O)C(=O)N[C@H](C(=O)N[C@@H](C)C(=O)N[C@@H](CCCNC(=N)N)C(=O)N[C@@H](CCCCN)C(=O)N[C@@H](CO)C(N)=O)[C@@H](C)O)[C@@H](C)O [H3KP4me3] | 1.87 Å |  |  |  |
| ARTKQTAR(KPme3)STGGKA [H3KP9me3, histone H3 residues 1–15 with trimethylphosphonium lysine analogue at position 9] |  | the reaction proceeded to give signals corresponding to H3KP9me2 and H3KP9me2O | confirmed demethylation and conversion of 2OG to succinate | 10 Å^3 |
